Biological target: T1, human mAChR M4 (Homo sapiens, UniProt P08173)
T1 construct: expressed in transfected cells
T1 sequence (P08173 1-479): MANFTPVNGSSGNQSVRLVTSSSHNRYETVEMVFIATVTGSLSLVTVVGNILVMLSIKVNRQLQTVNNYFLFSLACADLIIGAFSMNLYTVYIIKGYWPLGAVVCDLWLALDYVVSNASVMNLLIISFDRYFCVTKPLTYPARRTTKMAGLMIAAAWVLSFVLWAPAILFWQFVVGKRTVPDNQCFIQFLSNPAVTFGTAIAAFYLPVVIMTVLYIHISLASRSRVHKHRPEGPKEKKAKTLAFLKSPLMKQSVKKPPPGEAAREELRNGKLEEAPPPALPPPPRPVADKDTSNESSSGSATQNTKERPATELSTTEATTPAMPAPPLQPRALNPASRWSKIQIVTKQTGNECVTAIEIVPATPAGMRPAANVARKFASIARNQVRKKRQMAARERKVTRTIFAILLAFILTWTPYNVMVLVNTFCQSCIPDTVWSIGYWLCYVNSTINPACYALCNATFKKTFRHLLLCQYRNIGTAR
Test: mAChR M4 cell-based functional assay (calcium mobilization, CHO-K1 hM4-Gqi5 cells)
Conditions: for Emax at 30 µM: CHO-K1, % ACh maximum at 30 μM, human M4; for EC50: positive allosteric modulator activity, increase in the EC20 acetylcholine response, CHO-K1 hM4-Gqi5 cells, read-out: Human M4 EC50; for Emax: CHO-K1
In short: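 CHO-K1 cells stably expressing human M4 with chimeric Gqi5, loaded with Fluo-4 AM; compounds given as 11-point 1:3 curves and calcium flux read on FDSS at 1 Hz. Acetylcholine EC20 added at 144 s, EC80 at 230 s; agonist, PAM (EC20 potentiation) and antagonist (EC80 inhibition) EC50/Emax from four-parameter fits.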

| Emax at 30 µM [%] | EC50 [nM] | Compound | Emax [%] |
| --- | --- | --- | --- |
| 53 | 364 | Cc1c(C#N)nnc(N2CCc3ncc(-c4ccc(Cl)nc4)cc3C2)c1C [compound 56, 6-[3-(6-chloro-3-pyridyl)-7,8-dihydro-5H-1,6-naphthyridin-6-yl]-4,5-dimethyl-pyridazine-3-carbonitrile] | – |
| 89 | 206 | Cc1cnccc1CNC(=O)c1cnc(N2CCc3ncc(Nc4ccnn4C)cc3C2)c(C)c1 [Example 474, 5-methyl-6-(3-((1-methyl-1H-pyrazol-5-yl)amino)-7,8-dihydro-1,6-naphthyridin-6(5H)-yl)-N-((3-methylpyridin-4-yl)methyl)nicotinamide] | – |
| 57 | 3480 | Cc1cc(C(=O)NCc2ccc3nccnc3c2)cnc1N1CCc2ncccc2C1 [compound 157, 6-(7,8-dihydro-5H-1,6-naphthyridin-6-yl)-5-methyl-N-(quinoxalin-6-ylmethyl)pyridine-3-carboxamide] | – |
| 83 | 824 | Cc1c(C#N)nnc(N2CCc3ncc(-c4ccc(N5CC6(COC6)C5)nc4)cc3C2)c1C [Example 332, 6-(3-(6-(2-oxa-6-azaspiro[3.3]heptan-6-yl)pyridin-3-yl)-7,8-dihydro-1,6-naphthyridin-6(5H)-yl)-4,5-dimethylpyridazine-3-carbonitrile] | – |
| 98 | 69 | Cc1cc(F)ncc1-c1cnc2c(c1)CN(c1ncc(C#N)cc1C)CC2 [Example 436, 6-(3-(6-fluoro-4-methylpyridin-3-yl)-7,8-dihydro-1,6-naphthyridin-6(5H)-yl)-5-methylnicotinonitrile] | – |
| 93 | 345 | Cc1cc(C#N)cnc1N1CCc2ncc(Nc3c(F)cccc3Cl)cc2C1 [compound 111, 6-[3-(2-chloro-6-fluoro-anilino)-7,8-dihydro-5H-1,6-naphthyridin-6-yl]-5-methyl-pyridine-3-carbonitrile] | – |
| 61 | 3340 | Cc1cc(CNC(=O)c2cnc(N3CCc4ncccc4C3)c(C)c2)ccn1 [compound 129, 6-(7,8-dihydro-5H-1,6-naphthyridin-6-yl)-5-methyl-N-[(2-methyl-4-pyridyl)methyl]pyridine-3-carboxamide] | – |
| 95 | 302 | Cc1cc(C#N)cnc1N1CCc2ncc(-c3cnn(C4CC4)c3)cc2C1 [compound 96, 6-[3-(1-cyclopropylpyrazol-4-yl)-7,8-dihydro-5H-1,6-naphthyridin-6-yl]-5-methyl-pyridine-3-carbonitrile] | – |
| 88 | 176 | Cc1cc(C(=O)NCc2cscn2)cnc1N1CCc2ncc(-c3ccc(C4CC4)nc3)cc2C1 [Example 484, 6-(3-(6-cyclopropylpyridin-3-yl)-7,8-dihydro-1,6-naphthyridin-6(5H)-yl)-5-methyl-N-(thiazol-4-ylmethyl)nicotinamide] | – |
| 103 | 110 | Cc1cc(C(=O)NCc2nccs2)cnc1N1CCc2ncc(-c3cn(C)nc3C)cc2C1 [compound 170, 6-[3-(1,3-dimethylpyrazol-4-yl)-7,8-dihydro-5H-1,6-naphthyridin-6-yl]-5-methyl-N-(thiazol-2-ylmethyl)pyridine-3-carboxamide] | – |

Second part, the compound before the results:

| Compound | Emax at 30 µM [%] | EC50 [nM] | Emax [%] |
| --- | --- | --- | --- |
| Cc1c(C#N)nnc(N2CCc3ncc(Nc4ccccc4OC(F)(F)F)cc3C2)c1C [compound 44, 4,5-dimethyl-6-[3-[2-(trifluoromethoxy)anilino]-7,8-dihydro-5H-1,6-naphthyridin-6-yl]pyridazine-3-carbonitrile] | 40 | 1880 | – |
| Cc1nc(Cl)c(C)c(N2Cc3cc(N)cnc3C(C)(C)C2)n1 [compound 219, 6-(6-chloro-2,5-dimethylpyrimidin-4-yl)-8,8-dimethyl-5,6,7,8-tetrahydro-1,6-naphthyridin-3-amine] | – | ≥ 10000 | 37 |
| Cc1nc(C)c(-c2cnc3c(c2)CN(c2ncc(C#N)cc2C)CC3)s1 [compound 184, 6-[3-(2,4-dimethylthiazol-5-yl)-7,8-dihydro-5H-1,6-naphthyridin-6-yl]-5-methyl-pyridine-3-carbonitrile] | 111 | 106 | – |
| Cc1cc(C#N)cnc1N1CCc2ncc(Br)cc2C1 [Example 594, 6-(3-bromo-7,8-dihydro-1,6-naphthyridin-6(5H)-yl)-5-methylnicotinonitrile] | – | 132 | 84 |
| Cc1cc(C#N)nnc1N1CCc2ncc(C(F)F)cc2C1 [Example 309, 6-(3-(difluoromethyl)-7,8-dihydro-1,6-naphthyridin-6(5H)-yl)-5-methylpyridazine-3-carbonitrile] | – | 770 | 96 |
| Cc1cc(C(=O)N2CC(Cl)C2)nnc1N1CCc2ncc(-n3cccn3)cc2C1 [Example 532, (6-(3-(1H-pyrazol-1-yl)-7,8-dihydro-1,6-naphthyridin-6(5H)-yl)-5-methylpyridazin-3-yl)(3-chloroazetidin-1-yl)methanone] | 90 | 78 | – |
| Cc1cc(Nc2cnc3c(c2)CN(c2nnc(C#N)c(C)c2C)CC3)c(F)cn1 [Example 614, 6-(3-((5-fluoro-2-methylpyridin-4-yl)amino)-7,8-dihydro-1,6-naphthyridin-6(5H)-yl)-4,5-dimethylpyridazine-3-carbonitrile] | 92 | 12 | – |
| Cc1cc(C(=O)N2CC(C)(O)C2)nnc1N1CCc2ncc(-n3cccn3)cc2C1 [Example 534, (6-(3-(1H-pyrazol-1-yl)-7,8-dihydro-1,6-naphthyridin-6(5H)-yl)-5-methylpyridazin-3-yl)(3-hydroxy-3-methylazetidin-1-yl)methanone] | 88 | 322 | – |
| Cc1cc(C#N)cnc1N1CCc2ncc(CC(F)(F)F)cc2C1 [Example 423, 5-methyl-6-(3-(2,2,2-trifluoroethyl)-7,8-dihydro-1,6-naphthyridin-6(5H)-yl)nicotinonitrile] | 76 | 229 | – |
| Cc1nc(C)c(C)c(N2CCc3ncc(Oc4cc(F)ccc4F)cc3C2)n1 [compound 263, 3-(2,5-difluorophenoxy)-6-(2,5,6-trimethylpyrimidin-4-yl)-5,6,7,8-tetrahydro-1,6-naphthyridine] | 90 | 145 | – |
| Cc1c(C#N)nnc(N2CCc3ncc(-c4cccnc4F)cc3C2)c1C [compound 54, 6-[3-(2-fluoro-3-pyridyl)-7,8-dihydro-5H-1,6-naphthyridin-6-yl]-4,5-dimethyl-pyridazine-3-carbonitrile] | 70 | 391 | – |
| COCc1nc(Cl)c(C)c(N2CCc3ncc(C(F)(F)F)cc3C2)n1 [compound 214, 6-(6-chloro-2-(methoxymethyl)-5-methylpyrimidin-4-yl)-3-(trifluoromethyl)-5,6,7,8-tetrahydro-1,6-naphthyridine] | 103 | 709 | – |
| Cc1cc(C#N)cnc1N1CCc2ncccc2C1 [compound 45, 6-(7,8-dihydro-5H-1,6-naphthyridin-6-yl)-5-methyl-pyridine-3-carbonitrile] | – | 1190 | 97 |
| Cc1c(C#N)nnc(N2CCc3ncc(-c4cnn(C(F)F)c4)cc3C2)c1C [Example 326, 6-(3-(1-(difluoromethyl)-1H-pyrazol-4-yl)-7,8-dihydro-1,6-naphthyridin-6(5H)-yl)-4,5-dimethylpyridazine-3-carbonitrile] | 68 | 611 | – |

Source: US20250230155A1 (Vanderbilt University, priority 2021, published 2025)
